Reference: patent publication US8193245B2, “Composition comprising oleic acid and the use thereof” (University-Industry Cooperation Group of Kyung Hee …, priority 2005, dated 2012)

Assays:
[1] = system: neuronal cell injury caused by focal cerebral ischemia; experiment: Neuroprotective activity, middle cerebral artery occlusion (intraluminal suture) with TTC staining; type: in vivo, Sprague-Dawley rats
ICR mice = experiment: Acute toxicity test on ICR mice; type: in vivo
Experimental: (§1) The acute toxicity tests on ICR mice (mean body weight 25±5 g) and Sprague-Dawley rats (300±10 g, Jung-Ang Lab Animal Inc.) were performed using the oleic acid of the Example 1. Four group consisting of 10 mice or rats was administrated orally with 100 mg/kg, 250 mg/kg, 500 mg/kg and 1000 mg/kg of test sample or solvents (0.2[…], i.p.) respectively and observed for 2 weeks.
(§2) The acute toxicity tests on ICR mice and Sprague-Dawley rats were performed using the extract of the Example 1. Four group consisting of 10 mice or rats was administrated intraperitoneally with 25 mg/kg, 50 mg/kg, 100 mg/kg and 200 mg/kg of test sample or solvents (0.2[…], i.p.), respectively and observed for 24 hours.

Sprague-Dawley rats = experiment: Acute toxicity test on Sprague-Dawley rats; type: in vivo
Experimental: as §1, §2

[2] = intraperitoneally 25, 50, 100 and 200 mg/kg, observed for 24 hours
[3] = orally 100, 250, 500 and 1000 mg/kg, observed for 2 weeks

SMILES: CCCCCCCC/C=C\CCCCCCCC(=O)O [oleic acid, Cis-9-octadecenoic acid]
- staining area with TTC (white) versus control group ([1]; 1 mg/kg, 10 mg/kg, 100 mg/kg, 2 h MCA occlusion, 24 hours after reperfusion, FIG. 1): smaller staining area with TTC (white) due to little damage of neuronal cell than control group
- protective effect on neuronal cell death compared with control group ([1]; group C: 10 mg/kg): 32.9%
- protective effect on neuronal cell death compared with control group ([1]; group D: 100 mg/kg): 64.9%
- treatment-related effects on mortality, clinical signs, body weight changes and gross findings (ICR mice; [2]): no treatment-related effects
- treatment-related effects on mortality, clinical signs, body weight changes and gross findings (ICR mice; [3]): no treatment-related effects
- treatment-related effects on mortality, clinical signs, body weight changes and gross findings (Sprague-Dawley rats; [2]): no treatment-related effects
- treatment-related effects on mortality, clinical signs, body weight changes and gross findings (Sprague-Dawley rats; [3]): no treatment-related effects
